According to patent publication US10407422B2, “Triazolopyridine inhibitors of myeloperoxidase” (priority 2015, dated 2019):

How the values were obtained:
[1] = molecular target: T1, myeloperoxidase (MPO) (Homo sapiens (Human), UniProt P05164); experiment: MPO chlorination assay (APF assay); format: biochemical; settings: potency range class
Outline: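 Human MPO (200 pM) preincubated 10 min at room temperature with inhibitor and 120 mM NaCl in 100 mM KPi pH 7.4. Reaction started with APF plus 10 μM H2O2, and hypochlorite-generated fluorescein read kinetically (ex 485/em 535 nm) for 3 min. IC50 from linear-phase slopes fitted to a four-parameter equation.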

[2] = molecular target: T1, myeloperoxidase (MPO); experiment: MPO peroxidation assay (Amplex Red assay); format: biochemical; settings: potency range class
Outline: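 Human MPO at 200 pM with 40 nM H2O2 preincubated 10 min at room temperature with inhibitor in 100 mM KPi pH 7.4. Reaction started with Amplex Red mixture (200 μM Amplex Red, 10 mM H2O2); resorufin fluorescence (Ex 535, Em 590 nm) read kinetically for 15 min. IC50 fitted from slopes over 180-540 s.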

T1 sequence (P05164 49-745): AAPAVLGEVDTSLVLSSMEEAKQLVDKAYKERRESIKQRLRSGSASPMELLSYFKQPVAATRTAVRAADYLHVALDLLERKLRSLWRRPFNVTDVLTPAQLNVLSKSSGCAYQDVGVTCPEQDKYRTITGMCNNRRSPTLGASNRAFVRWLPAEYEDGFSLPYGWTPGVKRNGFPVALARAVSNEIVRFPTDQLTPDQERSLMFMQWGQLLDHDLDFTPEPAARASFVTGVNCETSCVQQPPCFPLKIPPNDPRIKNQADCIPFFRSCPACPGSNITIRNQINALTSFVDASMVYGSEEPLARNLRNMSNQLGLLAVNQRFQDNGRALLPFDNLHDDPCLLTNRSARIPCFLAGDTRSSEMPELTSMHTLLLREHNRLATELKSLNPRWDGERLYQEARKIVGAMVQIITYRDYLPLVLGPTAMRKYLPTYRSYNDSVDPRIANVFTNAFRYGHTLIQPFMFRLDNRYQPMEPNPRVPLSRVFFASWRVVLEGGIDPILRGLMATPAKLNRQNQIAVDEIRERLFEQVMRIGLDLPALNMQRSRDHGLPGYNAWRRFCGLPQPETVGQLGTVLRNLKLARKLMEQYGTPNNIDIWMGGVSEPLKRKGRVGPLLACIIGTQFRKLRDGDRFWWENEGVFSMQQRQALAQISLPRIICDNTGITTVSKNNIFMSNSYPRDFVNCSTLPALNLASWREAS

Row | SMILES | IC50 [1] [nM] | IC50 [2] [nM]
1 | Nc1cc(Cc2cnn(Cc3ccc4ncsc4c3)c2)c2nn[nH]c2n1 [Example 180, 7-{[1-(1,3-Benzothiazol-6-ylmethyl)-1H-pyrazol-4-yl]methyl}-3H-[1,2,3]triazolo[4,5-b]pyridin-5-amine] | 101 to 999 | 1 to 100
2 | CC1NCCc2cc(Cn3cc(Cc4cc(N)nc5[nH]nnc45)cn3)ccc21 (stereo not drawn) [Example 181, 7-({1-[(1-Methyl-1,2,3,4-tetrahydroisoquinolin-6-yl)methyl]-1H-pyrazol-4-yl}methyl)-3H-[1,2,3]triazolo[4,5-b]pyridin-5-amine] | 1 to 100 | 1 to 100
3 | Nc1cc(Cc2cnn(Cc3cccc(CN4CCNCC4)c3)c2)c2nn[nH]c2n1 [Example 182, 7-[(1-{[3-(Piperazin-1-ylmethyl)phenyl]methyl}-1H-pyrazol-4-yl)methyl]-3H-[1,2,3]triazolo[4,5-b]pyridin-5-amine] | 101 to 999 | 1 to 100
4 | Nc1cc(Cc2cnn(CCC3CCNCC3)c2)c2nn[nH]c2n1 [Example 183, 7-({1-[2-(Piperidin-4-yl)ethyl]-1H-pyrazol-4-yl}methyl)-3H-[1,2,3]triazolo[4,5-b]pyridin-5-amine] | 101 to 999 | 1 to 100
5 | Nc1cc(Cc2cnn(CC3CCN(Cc4ccccc4)C3)c2)c2nn[nH]c2n1 (stereo not drawn) [Example 184, 7-({1-[(1-Benzylpyrrolidin-3-yl)methyl]-1H-pyrazol-4-yl}methyl)-3H-[1,2,3]triazolo[4,5-b]pyridin-5-amine] | 101 to 999 | 1 to 100
6 | CNc1nc2ccc(Cn3cc(Cc4cc(N)nc5[nH]nnc45)cn3)cc2s1 [Example 186, 6-{[4-({5-Amino-3H-[1,2,3]triazolo[4,5-b]pyridin-7-yl}methyl)-1H-pyrazol-1-yl]methyl}-N-methyl-1,3-benzothiazol-2-amine] | 101 to 999 | 1 to 100
7 | Nc1cc(Cc2cnn(Cc3cccc([C@H]4CNC(=O)C4)c3)c2)c2nn[nH]c2n1 [Example 188, (S)-4-(3-((4-((5-Amino-3H-[1,2,3]triazolo[4,5-b]pyridin-7-yl)methyl)-1H-pyrazol-1-yl)methyl)phenyl)pyrrolidin-2-one] | 101 to 999 | 1 to 100
8 | Nc1cc(Cc2cnn(Cc3cccc([C@@H]4CNC(=O)C4)c3)c2)c2nn[nH]c2n1 [Example 189, (R)-4-(3-((4-((5-Amino-3H-[1,2,3]triazolo[4,5-b]pyridin-7-yl)methyl)-1H-pyrazol-1-yl)methyl)phenyl)pyrrolidin-2-one] | 101 to 999 | 1 to 100
9 | Nc1cc(Cc2cnn(Cc3cccc([C@@H]4CCNC4)c3)c2)c2nn[nH]c2n1 [Example 190] | 1 to 100 | 1 to 100
10 | Cc1ccc([C@H]2CNC(=O)C2)cc1Cn1cc(Cc2cc(N)nc3[nH]nnc23)cn1 [Example 192, (4S)-4-(3-{[4-({5-Amino-3H-[1,2,3]triazolo[4,5-b]pyridin-7-yl}methyl)-1H-pyrazol-1-yl]methyl}-4-methylphenyl)pyrrolidin-2-one] | 101 to 999 | 101 to 999
11 | Nc1cc(Cc2cnn(Cc3cc([C@@H]4CCNC4)ccc3C(F)(F)F)c2)c2nn[nH]c2n1 [Example 193, 7-{[1-({5-[(3S)-Pyrrolidin-3-yl]-2-(trifluoromethyl)phenyl}methyl)-1H-pyrazol-4-yl]methyl}-3H-[1,2,3]triazolo[4,5-b]pyridin-5-amine] | 101 to 999 | 1 to 100
12 | Cc1ccc([C@@H]2CCNC2)cc1Cn1cc(Cc2cc(N)nc3[nH]nnc23)cn1 [Example 194, 7-{[1-({2-Methyl-5-[(3S)-pyrrolidin-3-yl]phenyl}methyl)-1H-pyrazol-4-yl]methyl}-3H-[1,2,3]triazolo[4,5-b]pyridin-5-amine] | 1000 to 10000 | 1 to 100
13 | Nc1cc(Cc2cnn(Cc3cc(F)cc([C@@H]4CCNC4)c3)c2)c2nn[nH]c2n1 [Example 195, 7-{[1-({3-Fluoro-5-[(3S)-pyrrolidin-3-yl]phenyl}methyl)-1H-pyrazol-4-yl]methyl}-3H-[1,2,3]triazolo[4,5-b]pyridin-5-amine] | 1 to 100 | 1 to 100
14 | Nc1cc(Cc2cnn(Cc3cc(Cl)cc([C@@H]4CCNC4)c3)c2)c2nn[nH]c2n1 [Example 196, 7-{[1-({3-Chloro-5-[(3S)-pyrrolidin-3-yl]phenyl}methyl)-1H-pyrazol-4-yl]methyl}-3H-[1,2,3]triazolo[4,5-b]pyridin-5-amine] | 1 to 100 | 1 to 100
15 | COc1cc(Cn2cc(Cc3cc(N)nc4[nH]nnc34)cn2)cc([C@@H]2CCNC2)c1 [Example 197, 7-{[1-({3-Methoxy-5-[(3S)-pyrrolidin-3-yl]phenyl}methyl)-1H-pyrazol-4-yl]methyl}-3H-[1,2,3]triazolo[4,5-b]pyridin-5-amine] | 1 to 100 | 1 to 100
16 | Nc1cc(Cc2cnn(Cc3cc([C@@H]4CCNC4)ccc3Cl)c2)c2nn[nH]c2n1 [Example 198, 7-{[1-({2-Chloro-5-[(3 S)-pyrrolidin-3-yl]phenyl}methyl)-1H-pyrazol-4-yl]methyl}-3H-[1,2,3]triazolo[4,5-b]pyridin-5-amine] | 101 to 999 | 1 to 100
17 | Nc1cc(Cc2cnn(Cc3cc([C@@H]4CCNC4)cc(F)c3F)c2)c2nn[nH]c2n1 [Example 199, 7-{[1-({2,3-Difluoro-5-[(3S)-pyrrolidin-3-yl]phenyl}methyl)-1H-pyrazol-4-yl]methyl}-3H-[1,2,3]triazolo[4,5-b]pyridin-5-amine] | 1 to 100 | 1 to 100
18 | Nc1cc(Cc2cnn(Cc3cc([C@@H]4CCNC4)ccc3OC(F)F)c2)c2nn[nH]c2n1 [Example 200, 7-[(1-{[2-(Difluoromethoxy)-5-[(3 S)-pyrrolidin-3-yl]phenyl]methyl}-1H-pyrazol-4-yl)methyl]-3H-[1,2,3]triazolo[4,5-b]pyridin-5-amine] | 1 to 100 | 1 to 100
19 | Nc1cc(Cc2cnn(Cc3cc([C@@H]4CC(=O)NC4CO)cc(C(F)(F)F)c3)c2)c2nn[nH]c2n1 (stereo partly drawn) [Example 201, (4S)-4-(3-{[4-({5-Amino-3H-[1,2,3]triazolo[4,5-b]pyridin-7-yl}methyl)-1H-pyrazol-1-yl]methyl}-5-(trifluoromethyl)phenyl)-5-(hydroxymethyl)pyrrolidin-2-one] | 1 to 100 | 1 to 100
20 | CC1C[C@@H](c2cccc(Cn3cc(Cc4cc(N)nc5[nH]nnc45)cn3)c2)CN1 (stereo partly drawn) [Example 202, 7-{[1-({3-[(3S)-5-Methylpyrrolidin-3-yl]phenyl}methyl)-1H-pyrazol-4-yl]methyl}-3H-[1,2,3]triazolo[4,5-b]pyridin-5-amine] | 1 to 100 | 1 to 100
21 | Nc1cc(Cc2cnn(Cc3cccc([C@H]4CNC(Cc5ccccc5)C4)c3)c2)c2nn[nH]c2n1 (stereo partly drawn) [Example 203, 7-{[1-({3-[(3S)-5-benzylpyrrolidin-3-yl]phenyl}methyl)-1H-pyrazol-4-yl]methyl}-3H-[1,2,3]triazolo[4,5-b]pyridin-5-amine] | 1 to 100 | 1 to 100
22 | CCCC1C[C@@H](c2cccc(Cn3cc(Cc4cc(N)nc5[nH]nnc45)cn3)c2)CN1 (stereo partly drawn) [Example 204, 7-{[1-({3-[(3S)-5-propylpyrrolidin-3-yl]phenyl}methyl)-1H-pyrazol-4-yl]methyl}-3H-[1,2,3]triazolo[4,5-b]pyridin-5-amine] | 1 to 100 | 1 to 100
23 | CC(C)C1C[C@@H](c2cccc(Cn3cc(Cc4cc(N)nc5[nH]nnc45)cn3)c2)CN1 (stereo partly drawn) [Example 205, 7-{[1-({3-[(3S)-5-(propan-2-yl)pyrrolidin-3-yl]phenyl}methyl)-1H-pyrazol-4-yl]methyl}-3H-[1,2,3]triazolo[4,5-b]pyridin-5-amine] | 1 to 100 | 1 to 100
24 | Nc1cc(Cc2cnn(Cc3cccc(C4CCNCC4)c3)c2)c2nn[nH]c2n1 [Example 206, 7-[(1-{[3-(Piperidin-4-yl)phenyl]methyl}-1H-pyrazol-4-yl)methyl]-3H-[1,2,3]triazolo[4,5-b]pyridin-5-amine] | 101 to 999 | 1 to 100
25 | Nc1cc(Cc2cnn(Cc3cccc(CC4CCNCC4)c3)c2)c2nn[nH]c2n1 [Example 207, 7-[(1-{[3-(Piperidin-4-ylmethyl)phenyl]methyl}-1H-pyrazol-4-yl)methyl]-3H-[1,2,3]triazolo[4,5-b]pyridin-5-amine] | 101 to 999 | 1 to 100
26 | Nc1cc(Cc2cnn(Cc3cccc(C4CCCN4)c3)c2)c2nn[nH]c2n1 (stereo not drawn) [Example 208, 7-[(1-{[3-(Pyrrolidin-2-yl)phenyl]methyl}-1H-pyrazol-4-yl)methyl]-3H-[1,2,3]triazolo[4,5-b]pyridin-5-amine] | 1 to 100 | 1 to 100
27 | CN1CCC(c2cccc(Cn3cc(Cc4cc(N)nc5[nH]nnc45)cn3)c2)CC1 [Example 209, 7-[(1-{[3-(1-Methylpiperidin-4-yl)phenyl]methyl}-1H-pyrazol-4-yl)methyl]-3H-[1,2,3]triazolo[4,5-b]pyridin-5-amine] | 101 to 999 | 101 to 999
28 | Nc1cc(Cc2cnn(Cc3cccc(C4CNC4)c3)c2)c2nn[nH]c2n1 [Example 210, 7-[(1-{[3-(Azetidin-3-yl)phenyl]methyl}-1H-pyrazol-4-yl)methyl]-3H-[1,2,3]triazolo[4,5-b]pyridin-5-amine] | 1 to 100 | 1 to 100
29 | CC1CC(c2cccc(Cn3cc(Cc4cc(N)nc5[nH]nnc45)cn3)c2)CCN1 (stereo not drawn) [Example 211, 7-[(1-{[3-(2-Methylpiperidin-4-yl)phenyl]methyl}-1H-pyrazol-4-yl)methyl]-3H-[1,2,3]triazolo[4,5-b]pyridin-5-amine] | 1 to 100 | 1 to 100
30 | CC1CNCCC1c1cccc(Cn2cc(Cc3cc(N)nc4[nH]nnc34)cn2)c1 (stereo not drawn) [Example 212, 7-[(1-{[3-(3-Methylpiperidin-4-yl)phenyl]methyl}-1H-pyrazol-4-yl)methyl]-3H-[1,2,3]triazolo[4,5-b]pyridin-5-amine] | 1 to 100 | 1 to 100
